Source: patent EP2407164A1, “Copper II complexes of phenanthroline and their use in cancer treatment” (Dublin Institute of Technology Intellectual Property Ltd, priority 2010, dated 2012)
Numbered stars: 1 amine (or outer) side, 2 acyl side, 3 side chain; on linkers, the order of the positions; unused ones are H or OH. Bridge positions count the residues as written; N and C are the ends. Square brackets hold non-standard residues; d marks the D form. Peptide text beside a SMILES is read from it. I, II: the chains in the order shown. Actinocin(9to1) = Cc1c2oc3c(C)ccc(C(=O)[*:1])c3nc-2c(C(=O)[*:2])c(N)c1=O; NMeV = CN[CH](C(=O)O)C(C)C; Sar = CNCC(=O)O

Key:
DU145 = assay: MTT cytotoxicity assay, complexes 1-6; format: cell-based, Human; details: 24 hr exposure, mean of three independent experiments +/- standard error
Procedure: (§1) Human colon cancer cell line, HT29 (passage 17 to 30, ATCC, USA), was grown in McCoys's 5a medium supplemented with 2mM L-glutamine and fetal bovine serum (FBS) 10% and containing 100U/ ml penicillin and 100µg / ml streptomycin at 37°C in a humidified atmosphere with 5% CO2 Human Breast Cancer cell line, MCF-7 (passage 16 to 26, ATCC, USA) was grown in Eagle's minimum essential medium containing 2mM L-glutamine, 100U/ ml penicillin,100µg/ ml streptomycin, FBS (10%), 1mM sodium pyruvate and 1% (v/v) non essential amino acids at 37°C in a humidified atmosphere with 5% CO2 Human prostate cancer cell line, DU145 (passage 12 to 29, ATCC, USA) was grown in Eagle's minimum essential medium containing 2mM L-glutamine, 100U/ ml penicillin, 100µg/ ml streptomycin, FBS (10%), 1mM sodium pyruvate and 1% (v/v) non essential amino acids at 37°C in a humidified atmosphere with 5% CO2. All drugs were tested by MTT assay following 24-hour exposure of cells to each compound. Each value represents the mean IC50 of three independent experiments +/- standard error.
(§2) MTT Assay. This method is based on the reduction of the tetrazolium salt, methylthiazolyldiphenyl-tetrazolium bromide (MTT) into a crystalline blue formazan product by the cellular oxidoreductases of viable cells. The resultant formazan crystal formation is proportional to the number of viable cells. Cells were seeded at 4x 10^5 cells/ml in 96-well plates and incubated at 37°C in 5% CO2 for 24 hours. Cells were treated with a four log range of concentration of the test compounds in triplicate from 0.1 to 500 µM or with a solvent control (0.5% DMSO) in complete medium. Following 24 h incubation, cells were incubated with 20 µl of MTT (5 mg/ml) in 0.1 M PBS, pH 7.4 at 37 °C in a humid atmosphere with 5% CO2 for 4 h. Media was then gently aspirated from test cultures and 100 µL of dimethyl sulphoxide (DMSO) was added to all wells. The plates were then shaken for 2 min and the absorbance was read at 550 nm in a Varioscan plate reader. The IC50 was defined as the concentration of test compound required to reduce the absorbance of the MTT-formazan crystals by 50%, indicating 50% cell deactivation.

HT29 [1] = assay: MTT cytotoxicity assay, complexes 1-6; format: cell-based, Human; details: 24 hr exposure, mean of three independent experiments +/- standard error
Procedure: as §1, §2

MCF-7 = assay: MTT cytotoxicity assay, complexes 1-6; format: cell-based, Human; details: 24 hr exposure, mean of three independent experiments +/- standard error
Procedure: as §1, §2

SK-OV-3 = assay: MTT cytotoxicity assay, complexes 1-6; format: cell-based, Human; details: SK-OV-3 ovarian cancer, 24 hr exposure, mean of three independent experiments +/- standard error
Procedure: as §2
Cu(II) bis-phen complexes 4-6 display rapid, low micomolar toxicities against all tumor lines. […] It should be noted that 6 is dinuclear and so contains two active copper units, which may explain this heightened potency.

HT29 [2] = assay: MTT cytotoxicity assay, complex 7; format: cell-based, Human; details: HT29 colon cancer line, 24 hr
Procedure: (§3) For cytotoxicity evaluation HT29, SW480 and SW620 cell lines were employed; all the cell lines were grown in RPMI 1640 media (Fischer). All media were supplemented with 10% foetal bovine serum (FBS) and 45 IU/ml penicillin and 45 µg/ml streptomycin and cells were maintained at 37 °C in a 5% CO2 humidified incubator.
(§4) For sterilisation samples were filtered with a 0.2 micron cellulose acetate filter. For cytotoxicological evaluation all samples were prepared fresh on the day of exposure. A stock concentration of test compound was prepared in the exposure media (10% DMEM F-12) necessary for the cell line under test. This sample was vortexed to ensure a uniform dispersion of the compound under test.
For cytotoxicity assays cells were seeded in 96-well microplates (Nunc, Denmark) at a density of 1 x 10^5 cells/ml for the 24 hr test, 5 x10^4 cells/ml for the 48 hr test and 3 x 10^4 cells/ml for the 96 hr test. […] After 24 h of cell attachment, plates were washed with 100 µl/well phosphate buffered saline (PBS) and the cells were treated with increasing concentrations of each compound for 24 h. […] The plate was shaken at 240 rpm for 10 min and the absorbance was measured at 570 nm.
At least three independent experiments were conducted in triplicate for each cell line and toxicity endpoint. […] Differences between samples and the control were evaluated using the statistical analysis package SPSS 14.0. […]

SW480 = assay: MTT cytotoxicity assay, complex 7; format: cell-based; details: SW480 (Dukes' B) colon cancer line, 24 hr
Procedure: as §3, §4
(§5) For cytotoxicity assays cells were seeded in 96-well microplates (Nunc, Denmark) at a density of 1 x 10^5 cells/ml for the 24 hr test, 5 x10^4 cells/ml for the 48 hr test and 3 x 10^4 cells/ml for the 96 hr test. […] After 24 h of cell attachment, plates were washed with 100 µl/well phosphate buffered saline (PBS) and the cells were treated with increasing concentrations of each compound for 24 h. Six replicate wells were used for each control and test concentration per microplate. Following the desired time of compound exposure, control medium or test exposures were removed, the cells were rinsed with PBS and 100 µl of fresh medium (without FBS or supplements) was added to each well. 10 µl of MTT (5 mg/ml) prepared in PBS was then added to each well and the plates were incubated for 3 h at 37°C in a 5% CO2 humidified incubator. After this incubation period the medium was discarded, the cells were washed with 100 µl of PBS and 100 µl of DMSO was added to each well to extract the dye. The plate was shaken at 240 rpm for 10 min and the absorbance was measured at 570 nm.
(§6) At least three independent experiments were conducted in triplicate for each cell line and toxicity endpoint. […] Control values were set as 100%. Differences between samples and the control were evaluated using the statistical analysis package SPSS 14.0. Statistically significant differences were set at p≤0.05.

SW620 = assay: MTT cytotoxicity assay, complex 7; format: cell-based; details: SW620 (Dukes' C) colon cancer line, 24 hr
Procedure: as §3, §4, §5, §6

CT-DNA = assay: Competitive ethidium bromide displacement; format: binding, calf; details: 1.2 µM EtBr, 1 µM CT-DNAp, pH 7.0; for Kapp (apparent binding constant): Kapp = Ke x 1.26/C50 where Ke = 9.5 x 10^6 M(bp)^-1; for IC50: final volume 2 mL, 10 mM TES, 0.1 mM Na2EDTA, read-out: C50 = concentration required to reduce fluorescence by 50%
Procedure: Competitive Ethidium Displacement. […] Complexes 4-6, actinomycin D, pentamidine isethionate were prepared at 2.0 mM in DMSO. Two millilitres of DNA-Et solution were placed in a 10-mm quartz cuvet (3 mL) and positioned in a temperature controlled (20°C) spectrofluorometer (Perkin Elmer LS55B Luminescence Spectrometer). Excitation and emission wavelengths were set to 546 and 595 nm, respectively. After thermal equilibrium was established the emission and excitation slits were modified to give a fluorescence reading of 50 arbitrary units with measurements being recorded over a 20-s interval. An aliquot of complex or drug solution was taken (0.5 - 10 µL), was added to the cuvette and after equilibration the fluorescence reading was recorded. Repeated aliquots were added until the fluorescence was 20-40% of the initial control. Triplicate titrations were preformed and the apparent binding constants were calculated using Kapp = Ke x 1.26/C50 where Ke = 9.5 x 10^6 M(bp)^-1.

poly[d(A-T)]2 = assay: DNA-ethidium fluorescence quenching; format: binding; details: Q = equivalent concentration required to reduce fluorescence by 50%; 2.0 µM EtBr, 20 µM DNAp, 2 mM NaOAc buffer, 9.3 mM NaCl, pH 5.0
Procedure: (§7) DNA-Ethidium Fluorescence Quenching. Working solutions containing 20 µM poly[d(AT)]2 (ε260 = 13,100 M(bp)^-1 cm^-1), poly[d(G-C)]2 (ε260 = 16,800 M(bp)^-1 cm^-1) and CT-DNAp (ε260 = 12,824 M(bp)^-1 cm^-1) along with 2.0 µM Et in NaOAc buffer (2 mM NaOAc, 9.3 mM NaCl, 0.1 mM Na2EDTA, pH = 5.0) were prepared. Subsequent experimental steps are identical to the displacement experiment with the exception that a fluorescence reading of 200 arbitrary units with measurements being recorded over a 20-s interval was used. From a plot of the fluorescence vs added drug concentration, the Q values is given by the concentration required to effect 50% removal of the initial fluorescence.

poly[d(G-C)]2 = assay: DNA-ethidium fluorescence quenching; format: binding; details: Q = equivalent concentration required to reduce fluorescence by 50%; 2.0 µM EtBr, 20 µM DNAp, 2 mM NaOAc buffer, 9.3 mM NaCl, pH 5.0
Procedure: as §7

[3] = Solubility in organic solvents; details: DMSO/DMF
[4] = Homo sapiens, DU-145, DU145 prostate cancer
[5] = Homo sapiens, HT-29, HT29 colon cancer
[6] = Homo sapiens, MCF7, MCF-7 breast cancer

Compound	IC50 (DU145; [4]) [µM]	IC50 (HT29 [1]; [5]) [µM]	IC50 (MCF-7; [6]) [µM]	IC50 (SK-OV-3; Homo sapiens) [µM]	IC50 (DU145; DU145 prostate cancer) [µM]	IC50 (HT29 [1]; HT29 colon cancer) [µM]	IC50 (MCF-7; MCF-7 breast cancer) [µM]	IC50 (SK-OV-3) [µM]	Kapp (apparent binding constant) (CT-DNA)	IC50 (CT-DNA) [µM]	IC50 (poly[d(A-T)]2) [µM]	IC50 (poly[d(G-C)]2) [µM]	other results
O=C(O)c1cccc(C(=O)O)c1 [isophH2, isophthalic acid, reference compound]	> 500	> 500	> 500	> 500									
c1cnc2c(c1)ccc1cccnc12 [phen, 1,10-phenanthroline]	272 ± 8	377 ± 9.2	338 ± 64.7	286 ± 28.5									Activity LD50 (HT29 [2]): >100 µM; Activity LD50 (SW480): >100 µM; Activity LD50 (SW620): >100 µM
N.N.[Cl][Pt][Cl] [Cisplatin, reference compound]					> 500	349 ± 80.6	90.8 ± 3.5	> 500					
[Cu(ph)(phen)2]8H2O [Complex 4]					11.6 ± 4.5	6 ± 0.4	44.9 ± 7	6.7 ± 0.4	1.21x10^5 M(bp)^-1	99.1	26.2	69.8	Solubility [3]: forms only suspensions in DMSO/DMF
{[Cu(tereph)(H2O)3]2H2O}n [Complex 3]					> 500	> 500	414 ± 26	> 500					
O=C(O)c1ccc(C(=O)O)cc1 [terphH2, terephthalic acid, reference compound]	> 500	> 500	> 500	> 500									
{[Cu(ph)(H2O)]}n [Complex 1]					> 500	> 500	> 500	> 500					
Cc1c2oc3c(C)ccc(C(=O)NC4C(=O)NC(C(C)C)C(=O)N5CCCC5C(=O)N(C)CC(=O)N(C)C(C(C)C)C(=O)OC4C)c3nc-2c(C(=O)NC2C(=O)NC(C(C)C)C(=O)N3CCCC3C(=O)N(C)CC(=O)N(C)C(C(C)C)C(=O)OC2C)c(N)c1=O (stereo not drawn) [actinomycin D, reference compound] (I: TVP[Sar][NMeV] / II: TVP[Sar][NMeV]; ester I:1-I:C, II:1-II:C; linker I:N-II:N via Actinocin(9to1); configuration not given here)									9.69 x 10^5 M(bp)^-1	12.3	314	4.25	
O.O.O.O.O.O=C([O-])c1cccc(C(=O)[O-])c1.[Cu+2].c1cnc2c(c1)ccc1cccnc12.c1cnc2c(c1)ccc1cccnc12 [Complex 5, [Cu(isoph)(phen)2]5H2O]					10.6 ± 2.2	5.8 ± 0.2	41.2 ± 1.4	6.6 ± 0.4	1.20x10^5 M(bp)^-1	99.8	20.9	37.3	Solubility [3]: DMSO/DMF
N=C(N)c1ccc(OCCCCCOc2ccc(C(=N)N)cc2)cc1 [pentamidine, reference compound]									6.07x10^5 M(bp)^-1	19.7	44.9	203	
O=C1c2c(O)ccc(O)c2C(=O)c2c(NCCNCCO)ccc(NCCNCCO)c21 [mitoxantrone, reference compound]	27.3 ± 5.6	8 ± 0.6	7.5 ± 0.2	54.5 ± 2.6									
{[Cu(isoph)(H2O)3]2H2O}n [Complex 2]					422 ± 22.4	> 500	401 ± 54.1	436 ± 29.4					Solubility [3]: DMSO/DMF
O=C(O)c1ccccc1C(=O)O [phH2, phthalic acid, reference compound]	> 500	> 500	> 500	> 500									
